Source: patent US9765329B2, “Adipocyte-targeting non-viral gene delivery system” (INDUSTRY-UNIVERSITY COOPERATION FOUNDATION HANYANG …, priority 2013, dated 2017)
Entries after “also recorded” stand apart in the source; their conditions may differ. Square brackets hold non-standard residues; d marks the D form. Ends that are not written are not given here. Peptide text beside a SMILES is read from it.

How the values were obtained:
[1] = Serum protection assay; type: in vitro ADME; details: 50% (vol/vol) mouse serum, 2 h at 37° C., optimum charge ratio
Experimental: Oligo-peptoplexes were prepared at predetermined charge ratios, mouse serum was added to the polyplexes at a final concentration of 50% (vol/vol), and the samples were incubated for 2 h at 37° C.
For the decomplexation of DNA from the polyplexes after serum incubation, heparin in phosphate-buffered saline (pH 7.4, 0.5 mol/l NaCl) was added to the samples in the presence of 0.01 mol/l EDTA and incubated for 1 h. The samples were loaded in 0.8% agarose gel.

[2] = system: C57BL/6J obese mice; test: In vivo internalization into adipose tissue and gene expression
Experimental: FITC-conjugated ATS-R9 was administered to C57BL/6J obese mouse by tail vein injection. Rhodamine-conjugated lectin was injected to stain blood vessels.
FITC-conjugated ATS-R9 was injected into C57BL/6J obese mice and fixed adipose tissue sections were incubated with biotin-conjugated anti-FITC antibody. Cy3-conjugated ExtrAvidin was used for signal amplification thereof. Images were observed using a multiphoton confocal laser scanning microscope.
Finally, in vivo gene expression was confirmed. To this end, red fluorescence protein (RFP) expressing plasmid was concentrated by FITC-ATS-R9 and the oligo-peptoplexes were injected into C57BL/6J obese mice. Non-treated mice were used as controls. Images were observed using a multiphoton confocal laser scanning microscope.

[3] = system: obese adipocytes; test: Comparison of gene delivery ability (luciferase gene); type: cell-based
Experimental: The ability of ATS-R9 to deliver luciferase gene to obese adipocytes was evaluated. PEI and lipofectamine were used as controls.
Gene delivery efficacies before and after adipocyte differentiation were compared.
Luciferase was used as a gene to be delivered and scrambled ATS was used as a fat-targeting sequence. The ability of (scrambled ATS)-R9 to deliver the gene to obese adipocytes was compared to that of ATS-R9.

[4] = system: 3T3-L1 differentiated adipocytes; test: Internalization of FITC-ATS-R9 into cells (confocal microscopy); type: cell-based; details: FITC-conjugated ATS-R9 25 μg/ml, adipocytes at day 10
Experimental: (§1) Cellmask Deep Red was purchased from Invitrogen and DAPI-Fluoromount-G was purchased from Southern Biotech. 3T3-L1 preadipocytes, H9c2, and HEK293 cells were grown and differentiated on coverslips placed in 6 well plates.
(§2) After 24 h of seeding, the cells were treated with the FITC conjugated ATS-R9 (25 μg/ml) and incubated in a time-dependent manner that ranged from 15 min to 72 h.
(§3) After incubation, culture media were replaced, and the cells were washed three times with PBS and fixed in 3.7% formaldehyde. The plasma membranes of the cells were stained with Cellmask Deep Red. The cells were washed again with PBS and mounted in the presence of DAPI to stain the nuclei. Images were captured with a Carl Zeiss confocal microscope.
(§4) To monitor the degree of internalization of ATS-R9 into cells, mature adipocytes and preadipocytes were treated with FITC-labeled ATS-R9 (FITC-ATS-R9) and the delivery of the support to the cells was investigated.
3T3-L1 differentiated adipocytes (at day 10) were treated with FITC-conjugated ATS-R9 (25 μg/ml) and incubated for predetermined periods. The plasma membranes of the cells were stained with Cellmask Deep Red and the nuclei were counterstained with DAPI. Blue channel (for DAPI) is depicted as white to show nuclear localization of ATS-R9. Images were captured with a confocal laser scanning microscope. Scale bar: 10 μm.

[5] = Zeta potential and size measurement (DLS); type: physicochemical
Experimental: 5 μg of luciferase plasmid DNA (p-β-Luci), deionized water, and ATS-R9 (charge ratios: 0.5, 1, 3, 5, 7, and 9) were incubated for 30 min at room temperature to construct oligo-peptoplexes. The mean diameters and surface zeta potentials of the oligo-peptoplexes were measured using DLS equipped with a Zetasizer-Nano ZS (Malvern Instruments, UK).

[6] = In vitro cytotoxicity (MTT) assay; type: cell-based; details: mouse, 3T3-L1 differentiated adipocytes (day 10); adipocytes at day 10, 48 h after transfection, charge ratio up to 9; read-out: cell viability
Experimental: (§5) Cell viability was measured by MTT [3-(4,5-dimethylthiazol-2-yl)-2,5-diphenyltetrazolium bromide]assay.
(§6) 3T3-L1 differentiated adipocytes were incubated in 24-well plates. The adipocytes (at day 10) were treated with oligo-peptoplexes prepared by luciferase plasmid DNA, plain DMEM medium, and ATS-9R at predetermined charge ratios. PEI polyplexes were used as the control.
(§7) After 48 h of transfection, 50 μl of MTT reagent was added to 500 μl medium in each well and incubated for 3 h at 37° C. The culture media were removed and 500 μl dimethyl sulfoxide (DMSO) was added to each well and incubated for 20 min at room temperature. Absorbance was measured at 570 nm.
(§8) 3T3-L1 differentiated adipocytes at day 10 were transfected with the oligo-peptoplexes. After 48 h of transfection, cell viability was analyzed by MTT assay (n=6).

[7] = system: 3T3-L1 differentiated adipocytes; test: In vitro cytotoxicity (MTT) assay; type: cell-based; details: adipocytes at day 10, 48 h after transfection
Experimental: as §5, §6, §7, §8

[8] = system: diet-induced obesity (DIO) mice; test: In vivo fat homing (pCLE, Cellvizio); details: FITC-conjugated peptide, tail vein injection, obese mice
Experimental: C57BL/6J mice at 3 weeks of age were purchased from Central Lab Animal Inc. (Korea). For the first two weeks, the mice were fed 50% normal diet and 50% rodent diet with 60 kcal % from fat. […] The mice became obese after week 14 (body weight>45 g).
FITC conjugated ATS-9R (10 mg/ml) and FITC-9R (10 mg/ml) were diluted in PBS to a final concentration of 1.5 mg/ml and 100 μl of peptide was injected into obese mice by tail vein injection. Immediately after injection, peptide localization in vasculatures of different organs was observed by Cellvizio (Mauna Kea Technologies, France).
In this example, in vivo experiments were conducted using diet-induced obesity (DIO) mice. FITC-ATS-R9 was administered to the obese mice by tail vein injection to observe the targeting of the ATS-R9 to adipose tissue. Tracking was visualized using probe-based confocal laser endomicroscopy (pCLE, Cellvizio).

[9] = system: luciferase plasmid DNA (p-β-Luci); test: Gel retardation assay; type: physicochemical; details: charge ratio of ≧3
Experimental: 1 μg of luciferase plasmid DNA (p-β-Luci, Promega (USA)), deionized water, and ATS-R9 (charge ratios: 0.25, 0.5, 1, 3, 5, 7, and 9) were incubated for 30 min at room temperature to construct oligo-peptoplexes. The oligo-peptoplexes were subjected to electrophoresis under 0.5% TBE buffer solution in 0.8% agarose gel for 25 min (100 V). Naked DNA was used as a control. The DNA condensation efficiency of the ATS-R9 was compared with that of branched PEI (25 KDa, Sigma, USA).
The condensation efficacy of ATS-R9 was compared with that of branched PEI (25 kDa).
Oligo-peptoplexes were prepared with luciferase plasmid DNA (p-β-Luci), deionized water, and ATS-R9 or PEI with predetermined charge ratios and incubated for 30 min at room temperature.

[10] = system: 3T3-L1 differentiated adipocytes; test: In vitro transfection efficiency (luciferase assay); type: cell-based; details: charge ratio of 5, mature adipocytes at day 10, 72 h
Experimental: A luciferase assay kit was purchased from Promega (USA). A DC protein assay kit and bovine serum albumin standard were purchased from Bio-Rad Laboratories (USA). 3T3-L1 preadipocytes and differentiated adipocytes were seeded in 24 well plates.
Oligo-peptoplexes were prepared by mixing ATS-9R and 2 μg of luciferase plasmid DNA at a charge ratio of 5. R9 and PEI polyplexes were used as controls and prepared at a charge ratio of 5.
The cell lysates were then scraped, harvested, transferred to 1.5 ml microtubes, and centrifuged for 3 min at 13,000 rpm.
The luminescence of the cell lysates was measured on a 96-well plate luminometer (Berthold Detection Systems, Germany) with 20-second integration and expressed as relative luminescence units (RLU)/mg of cell protein. Protein concentration was determined by the DC protein assay kit with bovine serum albumin standard.
Mature adipocytes at day 10 of differentiation were transfected with p-β-Luci by ATS-R9, R9, and PEI at a charge ratio of 5.
To determine an optimum transfection time point, 3T3-L1 differentiated adipocytes were transfected with luciferase plasmid DNA (p-β-Luci) by ATS-R9 and PEI at a charge ratio of 5 at different days of differentiation.

[11] = system: 3T3-L1 preadipocytes; test: Internalization of FITC-ATS-R9 into cells (confocal microscopy); type: cell-based
Experimental: as §1, §2, §3, §4

[12] = system: Fabp4 gene; test: fabp4 sh-RNA gene silencing (RT-PCR); type: cell-based; details: 3T3-L1 mature adipocytes, 2 μg of fabp4 sh-RNA
Experimental: First, 3T3-L1 mature adipocytes were transfected with 2 μg of fabp4 sh-RNA by ATS-R9, PEI, and lipofectamine and gene silencing efficiency was measured by RT-PCR. GAPDH was used as an endogenous control. As a result, the Fabp4 gene silencing efficiency was 70% or more (FIG. 15).

[13] = system: 3T3-L1 preadipocytes; test: Targeting of rhodamine B-labeled ATS depending on degree of differentiation; type: cell-based; details: RhoB-ATS
Experimental: (§9) To investigate the location and amount of prohibitin expressed depending on the degree of adipocyte differentiation, two types of adipocytes were treated with rhodamine B-labeled ATS (RhoB-ATS).
(§10) Binding of ATS to prohibitin was determined by an immunoprecipitation assay (FIG. 5a) and the distributions of prohibitin in 3T3-L1 preadipocytes and mature adipocytes were confirmed through the staining results (FIGS. 5b and 5c).

[14] = system: 3T3-L1 mature adipocytes; test: as above; type: cell-based; details: RhoB-ATS
Experimental: as §9, §10

[15] = biological target: T1, prohibitin (Mus musculus, UniProt P67778); test: Binding of ATS to prohibitin (immunoprecipitation assay)
T1 construct: endogenous in cells; host or cells: 3T3-L1 preadipocytes and differentiated mature adipocytes (day 10)
T1 sequence (P67778 1-272): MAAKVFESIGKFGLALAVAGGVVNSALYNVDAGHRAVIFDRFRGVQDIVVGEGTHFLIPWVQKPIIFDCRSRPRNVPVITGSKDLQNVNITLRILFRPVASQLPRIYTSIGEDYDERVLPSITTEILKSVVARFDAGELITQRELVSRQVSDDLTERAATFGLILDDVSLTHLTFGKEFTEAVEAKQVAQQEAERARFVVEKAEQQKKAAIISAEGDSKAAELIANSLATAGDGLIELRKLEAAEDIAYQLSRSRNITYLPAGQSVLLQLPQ
Experimental: as §9, §10

## C[C@H](NC(=O)[C@H](CCCNC(=N)N)NC(=O)CNC(=O)CNC(=O)[C@H](CCCCN)NC(=O)[C@@H](N)CS)C(=O)N[C@@H](CCCCN)C(=O)N[C@@H](CC(=O)O)C(=O)N[C@@H](CCCNC(=N)N)C(=O)N[C@@H](CCCNC(=N)N)C(=O)N[C@@H](CCCNC(=N)N)C(=O)N[C@@H](CCCNC(=N)N)C(=O)N[C@@H](CCCNC(=N)N)C(=O)N[C@@H](CCCNC(=N)N)C(=O)N[C@@H](CCCNC(=N)N)C(=O)N[C@@H](CCCNC(=N)N)C(=O)N[C@@H](CCCNC(=N)N)C(=O)N[C@@H](CS)C(=O)O [ATS-R9] (H-CKGGRAKDRRRRRRRRRC-OH; N-terminus and C-terminus assumed)
[1]
  DNA degradation in serum: protected DNA from degradation
[2]; tail vein injection, multiphoton confocal microscopy
  internalization into in vivo adipose tissues: penetrated the blood vessels and was gradually internalized into adipocytes
[3]; before and after adipocyte differentiation
  gene delivery efficacy as differentiation into obese adipocytes proceeded: increased
[3]; luciferase gene, PEI and lipofectamine as controls
  gene delivery efficacy to obese adipocytes: superior to those of the other delivery systems PEI and lipofectamine
[4]
  strong fluorescence signals / steady state maintained: 48 h
  time to reach the cytoplasm: ≤ 15 min
  time to reach the nuclei: ≤ 1 h
[5]; ATS-R9 bound to DNA, neutral conditions
  size of condensed DNA complex: ≤ 200 nm
[5]; charge ratio of ≧1 (description)
  zeta potential: positive
[6]
  viability at 48 h: ≥ 90%
[7]
  toxicity to differentiated adipocytes: non-toxicity
[8]
  aggregation in fat pad vasculatures: aggregated in the fat pad vasculature
  aggregation in the other organs (liver, kidney): no aggregation was observed
  binding to fat pad microvessels: bound to the fat pad microvessels
[9]
  DNA condensation (no DNA migration): complete DNA condensation
[10]
  transfection efficiency (luciferase gene expression): higher transfection efficiency and gene expression efficiency than PEI and R9
[11]
  migration to the nuclei observed after: > 48 h
[12]
  Fabp4 gene silencing efficiency: ≥ 70%

## CKGGRAKDC (optionally rhodamine B labeled; Synthetic peptide adipocyte targeting sequence) [ATS, used free or rhodamine B-labeled]
[13]
  targeting efficiency to adipocytes before differentiation: not significantly high
[14]
  targeting efficiency / delivery to obese cells after differentiation: effectively delivered; also recorded: very high
[15]
  ability to bind to prohibitin: high ability to bind to prohibitin

## CRRRRRRRRRC (C[dR][dR][dR][dR][dR][dR][dR][dR][dR]C; cysteine pairing not given here) [R9, reference compound]
[8]
  aggregation in fat pad vasculatures: aggregation was not observed in the fat vasculatures
  binding to fat pad microvessels: no binding

## FITC-ATS-R9: FITC conjugated ATS-R9 (CKGGRAKDRRRRRRRRRC), SEQ ID NO: 2 (not fully specified (N-terminus); cysteine pairing not given here; also: FITC conjugated, site not given here)
[2]; RFP expressing plasmid concentrated by FITC-ATS-R9
  in vivo RFP gene expression: clearly confirmed
[2]; anti-FITC antibody, Cy3-ExtrAvidin
  adipose tissue homing (immunofluorescence assay): confirms the induction
